Here are results for seven molecules from PMC12856970 (Clinical Pharmacology in Drug Development, 2025).

“Also recorded” adds a separate entry of the source. Like-named read-outs stand apart in the source and are kept apart here.

Details of series [1]: method as in PMID 30580575. The note with it: monotherapies; cited from earlier work.
The nature of series [2]: Phase 1 DDI study: asciminib plasma trough concentration (Ctrough). Type of series: in vivo, human (healthy participants). The note with it: asciminib 80 mg QD (i.e. on day 8).
The nature of series [3]: Phase 1 DDI study: safety and tolerability (AEs, ECG). Type of series: in vivo, human (healthy participants). As to conditions: asciminib 80 mg QD multiple doses alone or with atorvastatin 20 mg.
For series [4] the following is noted: cited from earlier work.
In another series the test system is OATP1B1. As to conditions: in vitro; cited from earlier work.
Another series concerns OATP1B3. As to conditions: in vitro; cited from earlier work.
The test system of another series is P‐gp. The note with it: in vitro; cited from earlier work.
The subject of a further series is BCRP. As to conditions: in vitro; cited from earlier work.
Series [5] relates to OATP1B. Also noted: method as in data on file. As to conditions: single asciminib dose of 200 mg; ref data on file; cited from earlier work.
The subject of series [6] is CYP3A4. The note with it: midazolam single dose co-administered with asciminib 40 mg BID at steady state vs alone; cited from earlier work.
Series [7] deals with CYP3A4. As to conditions: midazolam with asciminib 200 mg BID; cited from earlier work.
Series [8] is described as follows: Phase 1 DDI study: plasma PK of atorvastatin and its metabolites after atorvastatin alone or with steady-state asciminib (LC-MS/MS, non-compartmental). As to conditions: for AUCinf, Gmean (GCV%) / AUCinf, Mean (SD) / AUCinf, Median (min, max) / AUClast, Gmean (GCV%) / AUClast, Mean (SD) / AUClast, Median (min, max) / Cmax, Gmean (GCV%) / Cmax, Mean (SD) / Cmax, Median (min, max) / T1/2, Gmean (GCV%) / T1/2, Mean (SD) / T1/2, Median (min, max) / Tmax, Median (min, max): plasma; for AUCinf, Adjusted Gmean / AUClast, Adjusted Gmean / Cmax, Adjusted Gmean: linear mixed-effects model, back-transformed; for AUCinf Gmean ratio / AUClast Gmean ratio / Cmax Gmean ratio: atorvastatin + asciminib/atorvastatin; for Effect of asciminib on Cmax, AUClast and AUCinf (in words): atorvastatin + steady-state asciminib versus atorvastatin alone.

The next series deals with OATP. Set-up: method as in PMID 27317801. As to conditions: after a single dose of rifampicin, healthy participants; cited from earlier work.
For series [9], the system named is OATP1B. The series is described as follows: Phase 1 DDI study: plasma CP-1 AUC0-24 as endogenous biomarker of OATP1B, without or with steady-state asciminib. The note with it: for AUC0‐24, Adjusted Gmean: linear mixed-effects model.
The mark [10] stands for this setting: steady state, 40 mg BID regimen.
Where [11] appears, read: atorvastatin 20 mg single dose + asciminib 80 mg QD at steady state (day 9).
Where [12] appears, read: atorvastatin 20 mg single oral dose alone (day 1).
Where [13] appears, read: atorvastatin + asciminib 80 mg QD steady state.
Where [14] appears, read: atorvastatin + asciminib at steady state.

In the case of `CC(C)c1c(C(=O)Nc2ccccc2)c(-c2ccccc2)c(-c2ccc(F)cc2)n1CC[C@@H](O)C[C@@H](O)CC(=O)O` [Atorvastatin], the “Rate of hospitalization due to rhabdomyolysis” value in series [1] was 0.44 per 10,000 patient‐years.

Turning to `O=C(Nc1ccc(OC(F)(F)Cl)cc1)c1cnc(N2CC[C@@H](O)C2)c(-c2ccn[nH]2)c1` [asciminib, Asciminib], the “Time of dosing until steady state was attained” value in [2] amounted to 3 days. For the same molecule, the “Tolerability (in words)” value in series [3] was “well tolerated”. For the same molecule, the “Time of dosing to reach steady-state levels” value in series [4] was at most 3 days. In addition, in series [4] (setting [10]), the “AUC0‐12, Gmean” value is 5262 ng x h/mL and the “Cmax, Gmean” value is recorded as 793 ng/mL. Besides, the “Cmax, Gmean” value in series [4] (steady state, 80 mg QD regimen) is given as 1781 ng/mL. Moreover, the “Inhibition of OATP1B1 (in words)” value with OATP1B1 is given as “could inhibit; also recorded: can inhibit”. Also, in the series on OATP1B3, the “Inhibition of OATP1B3 (in words)” value is “could inhibit; also recorded: can inhibit”. Moreover, the “Inhibition of P‐gp (in words)” value with P‐gp is reported as “could inhibit; also recorded: can inhibit”. The “Inhibition of BCRP (in words)” value with BCRP is “could inhibit; also recorded: can inhibit”. The “DDI effect on CP‐1 (in words)” value with OATP1B [5] is “no DDI effect”.

Turning to `Cc1ncc2n1-c1ccc(Cl)cc1C(c1ccccc1F)=NC2` [midazolam], in the series with CYP3A4 [6], the “Increase in AUCinf” value is listed as 28%, the “Increase in AUClast” value was 27% and the “Increase in Cmax” value is 11%. Moreover, in the series on CYP3A4 [7], the “Increase in AUCinf (PBPK prediction)” value is 88% and the “Increase in Cmax (PBPK prediction)” value is recorded as 58%.

For `CC(C)c1c(C(=O)Nc2ccccc2O)c(-c2ccccc2)c(-c2ccc(F)cc2)n1CC[C@@H](O)C[C@@H](O)CC(=O)O` [o‐Hydroxy‐atorvastatin, o‐hydroxy‐atorvastatin], in [8] (setting [11]), the “AUCinf, Gmean (GCV%)” value is 41.7 (34.9) ng x h/mL; the “AUCinf, Mean (SD)” value is recorded as 44.1 (15.5) ng x h/mL; the “AUCinf, Median (min, max)” value is given as 42.8 (23.6, 81.7) ng x h/mL; the “AUClast, Gmean (GCV%)” value is listed as 39.2 (36.8) ng x h/mL. For the same molecule, in series [8] (setting [11]), the “AUClast, Mean (SD)” value was 41.7 (15.4) ng x h/mL; the “AUClast, Median (min, max)” value is reported as 40.1 (21.4, 79.2) ng x h/mL; the “Cmax, Gmean (GCV%)” value was 3.98 (45.4) ng/mL; the “Cmax, Mean (SD)” value is recorded as 4.27 (2.11) ng/mL. In addition, in series [8] (setting [11]), the “Cmax, Median (min, max)” value is reported as 3.88 (1.56, 11.3) ng/mL; the “T1/2, Gmean (GCV%)” value was 11.7 (28.4) h; the “T1/2, Mean (SD)” value is on record as 12.2 (3.43) h; the “T1/2, Median (min, max)” value is given as 12.2 (7.33, 21.2) h. Also, the “Tmax, Median (min, max)” value in series [8] (setting [11]) is 1.50 (0.50, 6.00) h. Also, in [8] (setting [12]), the “AUCinf, Gmean (GCV%)” value is listed as 41.2 (34.7) ng x h/mL; the “AUCinf, Mean (SD)” value is given as 43.4 (14.3) ng x h/mL; the “AUCinf, Median (min, max)” value is reported as 44.1 (23.1, 77.7) ng x h/mL; the “AUClast, Gmean (GCV%)” value is 37.0 (42.2) ng x h/mL. For the same molecule, in [8] (setting [12]), the “AUClast, Mean (SD)” value is given as 39.8 (15.0) ng x h/mL; the “AUClast, Median (min, max)” value is 41.6 (15.2, 75.8) ng x h/mL; the “Cmax, Gmean (GCV%)” value is given as 3.66 (56.9) ng/mL; the “Cmax, Mean (SD)” value is given as 4.14 (1.98) ng/mL. Further, in series [8] (setting [12]), the “Cmax, Median (min, max)” value was 4.04 (1.42, 8.11) ng/mL; the “T1/2, Gmean (GCV%)” value was 9.64 (28.0) h; the “T1/2, Mean (SD)” value is listed as 10.0 (2.95) h; the “T1/2, Median (min, max)” value is 9.67 (5.12, 19.9) h. Further, in series [8] (setting [12]), the “Tmax, Median (min, max)” value is given as 2.00 (0.50, 5.00) h. Besides, in series [8] (setting [13]), the “AUCinf, Adjusted Gmean” value was determined as 41.7 ng x h/mL; the “AUClast, Adjusted Gmean” value worked out at 39.4 ng x h/mL; the “Cmax, Adjusted Gmean” value turned out to be 3.95 ng/mL. In series [8] (setting [14]), the “Time post-dose at which mean Cmax was observed (mean concentration-time profile)” value (from here on “Time post-dose”) stood at 2 h. Also, in series [8], the “AUCinf Gmean ratio” value is given as 1.02; the “AUClast Gmean ratio” value was determined as 1.07; the “Cmax Gmean ratio” value is recorded as 1.08; the “Effect of asciminib on Cmax, AUClast and AUCinf (in words)” value was “did not affect; also recorded: comparable between treatments; also recorded: negligible”. In addition, in series [8] (atorvastatin alone), the “Time post-dose” value was determined as 2 h; the “AUCinf, Adjusted Gmean” value was 40.7 ng x h/mL; the “AUClast, Adjusted Gmean” value is recorded as 37.0 ng x h/mL; the “Cmax, Adjusted Gmean” value came to 3.66 ng/mL.

As to `CC[C@H](C)C(=O)O[C@H]1C[C@H](O)C=C2C=C[C@H](C)[C@H](CC[C@@H](O)C[C@@H](O)CC(=O)O)[C@H]21` [pravastatin], the “Rate of hospitalization due to rhabdomyolysis” value in series [1] is reported as 0.44 per 10,000 patient‐years.

Take `CC(C)c1c(C(=O)Nc2ccc(O)cc2)c(-c2ccccc2)c(-c2ccc(F)cc2)n1CC[C@@H](O)C[C@@H](O)CC(=O)O` [p‐Hydroxy‐atorvastatin, p‐hydroxy‐atorvastatin]: in [8] (setting [11]), the “AUCinf, Gmean (GCV%)” value is reported as 6.2 (95.2) ng x h/mL; the “AUCinf, Mean (SD)” value was 7.67 (4.91) ng x h/mL; the “AUCinf, Median (min, max)” value is listed as 6.63 (1.50, 15.7) ng x h/mL; the “AUClast, Gmean (GCV%)” value is 2.9 (87.7) ng x h/mL. Further, in series [8] (setting [11]), the “AUClast, Mean (SD)” value is given as 3.83 (3.28) ng x h/mL; the “AUClast, Median (min, max)” value is reported as 2.99 (0.717, 13.6) ng x h/mL; the “Cmax, Gmean (GCV%)” value is listed as 0.16 (48.0) ng/mL; the “Cmax, Mean (SD)” value is reported as 0.171 (0.0880) ng/mL. In series [8] (setting [11]), the “Cmax, Median (min, max)” value is reported as 0.145 (0.0699, 0.425) ng/mL; the “T1/2, Gmean (GCV%)” value is reported as 22.8 (58.5) h; the “T1/2, Mean (SD)” value is 25.3 (10.9) h; the “T1/2, Median (min, max)” value is 26.0 (8.45, 40.9) h. For the same molecule, the “Tmax, Median (min, max)” value in [8] (setting [11]) is given as 10.00 (1.00, 12.00) h. Besides, in series [8] (atorvastatin 20 mg single dose + asciminib 80 mg QD at steady state (day 9), listed as p‐hydroxy‐atorvastatin), the “Tmax, Median (min, max)” value is on record as “approximately 10 h”. Besides, in series [8] (setting [12]), the “AUCinf, Gmean (GCV%)” value is reported as 7.4 (53.2) ng x h/mL; the “AUCinf, Mean (SD)” value is given as 8.16 (4.48) ng x h/mL; the “AUCinf, Median (min, max)” value was 6.60 (4.86, 14.6) ng x h/mL; the “AUClast, Gmean (GCV%)” value is reported as 3.1 (69.8) ng x h/mL. In [8] (setting [12]), the “AUClast, Mean (SD)” value is reported as 3.73 (2.75) ng x h/mL; the “AUClast, Median (min, max)” value is given as 2.56 (0.964, 12.5) ng x h/mL; the “Cmax, Gmean (GCV%)” value is reported as 0.17 (53.8) ng/mL; the “Cmax, Mean (SD)” value was 0.189 (0.112) ng/mL. Further, in series [8] (setting [12]), the “Cmax, Median (min, max)” value is 0.144 (0.0793, 0.468) ng/mL; the “T1/2, Gmean (GCV%)” value is 30.4 (24.6) h; the “T1/2, Mean (SD)” value is given as 31.1 (7.50) h; the “T1/2, Median (min, max)” value was 30.4 (24.3, 39.3) h. Also, in series [8] (setting [12]), the “Tmax, Median (min, max)” value is recorded as 10.00 (1.50, 12.01) h. Besides, the “Tmax, Median (min, max)” value in series [8] (atorvastatin 20 mg single oral dose alone (day 1), listed as p‐hydroxy‐atorvastatin) is reported as “approximately 10 h”. Also, in series [8] (setting [13]), the “AUCinf, Adjusted Gmean” value is 5.92 ng x h/mL; the “AUClast, Adjusted Gmean” value worked out at 2.89 ng x h/mL; the “Cmax, Adjusted Gmean” value is on record as 0.156 ng/mL. For the same molecule, in [8] (setting [14]), the “Time post-dose” value was determined as 10 h. Also, in series [8], the “AUCinf Gmean ratio” value is 0.74; the “AUClast Gmean ratio” value is 0.98; the “Cmax Gmean ratio” value is 0.98; the “Effect of asciminib on Cmax, AUClast and AUCinf (in words)” value is given as “did not affect; also recorded: negligible”. In series [8] (atorvastatin alone), the “Time post-dose” value is 10 h; the “AUCinf, Adjusted Gmean” value is 8.04 ng x h/mL; the “AUClast, Adjusted Gmean” value turned out to be 2.96 ng x h/mL; the “Cmax, Adjusted Gmean” value is on record as 0.160 ng/mL.

coproporphyrin‐1 [CP‐1]: the “Increase in Cmax” value in the series with OATP is given as 5.7 fold. Besides, the “AUC0‐24 Gmean ratio” value with OATP1B [9] (atorvastatin + asciminib/atorvastatin) came to 1.02. The “Effect of asciminib on CP‐1 plasma concentrations (in words)” value in the series with OATP1B [9] (steady-state asciminib 80 mg QD) is “not affected; also recorded: remained unaffected”. For the same molecule, the “AUC0‐24, Adjusted Gmean” value in the series with OATP1B [9] (treatment 'Atorvastatin + asciminib' (steady-state asciminib)) is listed as 12,500 pg x h/mL; with OATP1B [9] (treatment 'Atorvastatin' (without asciminib)) it was 12,300 pg x h/mL. Also, the “AUC0‐24, Gmean (GCV%)” value in the series on OATP1B [9] (with asciminib 80 mg QD, day 8, plasma) was 12,600 pg x h/mL; with OATP1B [9] (without asciminib, day 4, plasma), 12,300 pg x h/mL.
